Data set [1] deals with T1, human GLP-1 receptor (hGLP-1 R) (Homo sapiens, UniProt P43220).
T1 construct: expressed in transfected cells; host or cells: HEK-293
The data set can be described thus: cAMP response (HTRF) of HEK-293 cells stably expressing human GLP-1 receptor. The class given is cell-based. Here is the method:
cAMP content of cells was determined using a kit from Cisbio Corp. (cat. no. 62AM4PEC) based on HTRF (Homogenous Time Resolved Fluorescence). For preparation, cells were split into T175 culture flasks and grown overnight to near confluency in medium (DMEM/10% FBS). Medium was then removed and cells washed with PBS lacking calcium and magnesium, followed by proteinase treatment with accutase (Sigma-Aldrich cat. no. A6964). Detached cells were washed and resuspended in assay buffer (1×HBSS; 20 mM HEPES, 0.1% BSA, 2 mM IBMX) and cellular density determined. They were then diluted to 400000 cells/ml and 25 μl-aliquots dispensed into the wells of 96-well plates. For measurement, 25 μl of test compound in assay buffer was added to the wells, followed by incubation for 30 minutes at room temperature. After addition of HTRF reagents diluted in lysis buffer (kit components), the plates were incubated for 1 hr, followed by measurement of the fluorescence ratio at 665/620 nm. In vitro potency of agonists was quantified by determining the concentrations that caused 50% activation of maximal response (EC50).

For data set [2], the target named is T2, human glucagon receptor (hGLUC R) (Homo sapiens, UniProt P47871).
T2 construct: expressed in transfected cells; host or cells: HEK-293
T2 sequence (P47871 26-477): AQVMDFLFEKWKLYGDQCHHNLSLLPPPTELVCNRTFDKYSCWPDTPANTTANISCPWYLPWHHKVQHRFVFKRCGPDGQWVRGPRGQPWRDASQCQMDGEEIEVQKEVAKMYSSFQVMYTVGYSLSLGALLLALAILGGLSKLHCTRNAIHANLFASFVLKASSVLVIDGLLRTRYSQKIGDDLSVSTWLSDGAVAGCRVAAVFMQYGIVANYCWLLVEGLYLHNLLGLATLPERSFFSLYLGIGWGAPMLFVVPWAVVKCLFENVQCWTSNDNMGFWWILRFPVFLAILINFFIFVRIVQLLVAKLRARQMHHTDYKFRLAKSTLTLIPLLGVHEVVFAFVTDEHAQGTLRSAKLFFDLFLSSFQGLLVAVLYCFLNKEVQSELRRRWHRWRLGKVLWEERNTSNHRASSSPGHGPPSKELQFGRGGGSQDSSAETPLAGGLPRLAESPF
Kind of data set: cAMP response (HTRF) of HEK-293 cells stably expressing human glucagon receptor. It counts as cell-based. The settings on record: Table 4; read-out: EC50 hGLUC R. In short, it runs like this:
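cAMP accumulation was read by homogeneous time-resolved fluorescence after 30 min compound exposure at room temperature. Stable receptor-expressing HEK-293 cells, 400000 cells/ml, were used in HEPES-buffered HBSS containing 0.1% BSA and the phosphodiesterase inhibitor IBMX (2 mM).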

A short description of data set [3]: Solubility testing of exendin-4 derivatives (HPLC-UV of supernatant). It counts as physicochemical. As to conditions: pH 7.4. How it is done:
Prior to the testing of solubility and stability of a peptide batch, its content was determined. Therefore, two parameters were investigated, its purity (HPLC-UV) and the amount of salt load of the batch (ion chromatography).
HPLC-UV was performed after 2 h of gentle agitation from the supernatant, which was obtained by 20 min of centrifugation at 4000 rpm.

Data set [4] relates to hepatic glycogenolysis. Kind of data set: Blood glucose profile in anesthetized rats. It counts as in vivo, male Wistar rats. The settings on record: for effect on blood glucose: 10 to 30 μg/kg s.c.
Method: The method aimed to study a test compound on the process of hepatic glycogenolysis. The rats had free access to food until the start of the experiment. […] The effect of GCG-mimetic on hepatic glycogenolysis and the subsequent hyperglycemic peak in the blood was compared to the effect obtained with a subcutaneous bolus injection of GCG at a dose of 30 μg/kg.
Rats were anaesthetized with an intraperitoneal injection of pentobarbital sodium (60 mg/kg) and ketamine (10 mg/kg) and tracheotomized. Anesthesia was maintained for up to 5 hours by subcutaneous infusion of pentobarbital sodium (adjusted to the anesthetic depth of the individual animal; about 24 mg/kg/h). Body temperature was monitored with a rectal probe thermometer, and temperature was maintained at 37° C. by means of a heated surgical table. Blood samples for glucose analysis (10 μl) were obtained from the tip of the tail every 15 minutes. The rats were allowed to stabilize their blood glucose levels after surgery for up to 2 hours. Then, GCG as reference compound, or the test compound were administered subcutaneously. For GCG a dose of 30 μg/kg was used to induce hepatic glycogenolysis.
Data set [5] deals with blood glucose. The data set can be described thus: Blood glucose profile in normoglycemic Beagle dogs. It counts as in vivo, male normoglycemic Beagle dogs. The settings on record: for effect on blood glucose relative to human glucagon: s.c. injection; for induction of a blood glucose response, SEQ. ID 5 vs. SEQ. ID 6: normoglycemic dogs.
Method: Male normoglycemic Beagle dogs were fasted overnight before and during the entire experiment. The animals were randomized to groups of n=6 per group. […] The injection solutions were prepared freshly prior to the experiment. The test compound was administered as a single injection via three different routes (s.c., i.m. and i.v.) at doses of 1-100 μg/kg. […] Blood glucose was determined enzymatically (hexokinase method) from whole blood, insulin was analyzed from K-EDTA plasma with a dog-specific ELISA assay.

Non-standard residues stand in square brackets, D forms with d. Residues, ends and D or L forms follow the SMILES beside them. Ala(4-thiazolyl) = N[C@@H](Cc1cscn1)C(=O)O; Nle = CCCC[C@H](N)C(=O)O Where only a bound is given, the exact number is not on record here.

Here are results for four compounds from US9932381B2, “Exendin-4 derivatives as selective glucagon receptor agonists” (priority 2014, dated 2018).

T1 sequence (P43220 24-463): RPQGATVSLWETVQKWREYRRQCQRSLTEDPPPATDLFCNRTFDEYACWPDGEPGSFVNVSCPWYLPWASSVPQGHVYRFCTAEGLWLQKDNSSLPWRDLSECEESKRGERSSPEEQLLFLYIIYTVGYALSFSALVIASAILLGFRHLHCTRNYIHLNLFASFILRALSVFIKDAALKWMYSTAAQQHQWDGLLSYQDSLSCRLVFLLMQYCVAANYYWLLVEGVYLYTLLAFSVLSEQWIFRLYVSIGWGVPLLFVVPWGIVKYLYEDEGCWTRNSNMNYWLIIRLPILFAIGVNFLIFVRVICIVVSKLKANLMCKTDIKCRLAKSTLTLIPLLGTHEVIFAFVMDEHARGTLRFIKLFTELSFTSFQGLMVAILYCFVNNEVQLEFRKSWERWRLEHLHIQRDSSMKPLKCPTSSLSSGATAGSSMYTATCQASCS

One may read the EC50 as the concentration needed to bring the measured effect to its halfway point. For orientation: solubility means the concentration that dissolves in the medium under given conditions. A lower solubility goes with a poorly soluble substance. For `CC[C@H](C)[C@H](NC(=O)[C@H](Cc1ccccc1)NC(=O)[C@H](CC(=O)O)NC(=O)[C@H](CCC(N)=O)NC(=O)[C@H](C)NC(=O)[C@H](CCCNC(=N)N)NC(=O)[C@H](CCCNC(=N)N)NC(=O)[C@H](CO)NC(=O)[C@H](CCC(=O)O)NC(=O)[C@H](CC(C)C)NC(=O)[C@H](CCC(N)=O)NC(=O)[C@H](CCCCN)NC(=O)[C@H](CO)NC(=O)[C@H](CC(C)C)NC(=O)[C@H](CC(=O)O)NC(=O)[C@H](CO)NC(=O)[C@@H](NC(=O)[C@H](Cc1ccccc1)NC(=O)[C@@H](NC(=O)CNC(=O)[C@H](CCC(N)=O)NC(=O)[C@H](CO)NC(=O)[C@@H](N)Cc1cscn1)[C@@H](C)O)[C@@H](C)O)C(=O)N[C@@H](CCC(=O)O)C(=O)N[C@@H](Cc1c[nH]c2ccccc12)C(=O)N[C@@H](CC(C)C)C(=O)N[C@@H](CC(C)C)C(=O)N[C@@H](C)C(=O)N[C@H](C(=O)NCC(=O)N1CCC[C@H]1C(=O)N[C@@H](CCC(=O)O)C(=O)N[C@@H](CO)C(=O)NCC(=O)N[C@@H](C)C(=O)N1CCC[C@H]1C(=O)N1CCC[C@H]1C(=O)N1CCC[C@H]1C(=O)N[C@@H](CO)C(=O)O)[C@@H](C)O` [SEQ ID NO 15, Tza-SQGTFTSDLSKQLESRRAQDFIEWLLATGPESGAPPPS-OH] (H-[Ala(4-thiazolyl)]SQGTFTSDLSKQLESRRAQDFIEWLLATGPESGAPPPS-OH), the EC50 in data set [1] (Table 4) stood at 34.5 nM; in data set [1] (Table 5, Tza vs. His in position 1), 19.7 nM; in data set [2] it was 2.2 pM. The compound further displayed a solubility at 2 h in data set [3] greater than 10000 µg/mL.

As to `CC[C@H](C)[C@H](NC(=O)[C@H](Cc1ccccc1)NC(=O)[C@H](CCC(=O)O)NC(=O)[C@H](CCC(N)=O)NC(=O)[C@H](C)NC(=O)[C@H](CCCNC(=N)N)NC(=O)[C@H](CCCNC(=N)N)NC(=O)[C@H](CO)NC(=O)[C@H](CCC(=O)O)NC(=O)[C@H](CC(C)C)NC(=O)[C@H](CCC(N)=O)NC(=O)[C@H](CCCCN)NC(=O)[C@H](CO)NC(=O)[C@H](Cc1ccc(O)cc1)NC(=O)[C@H](CC(=O)O)NC(=O)[C@H](CO)NC(=O)[C@@H](NC(=O)[C@H](Cc1ccccc1)NC(=O)[C@@H](NC(=O)CNC(=O)[C@H](CCC(N)=O)NC(=O)[C@H](CO)NC(=O)[C@@H](N)Cc1cscn1)[C@@H](C)O)[C@@H](C)O)C(=O)N[C@@H](CCC(=O)O)C(=O)N[C@@H](Cc1c[nH]c2ccccc12)C(=O)N[C@@H](CC(C)C)C(=O)N[C@@H](CC(C)C)C(=O)N[C@@H](C)C(=O)N[C@H](C(=O)NCC(=O)N1CCC[C@H]1C(=O)N[C@@H](CCC(=O)O)C(=O)N[C@@H](CO)C(=O)NCC(=O)N[C@@H](C)C(=O)N1CCC[C@H]1C(=O)N1CCC[C@H]1C(=O)N1CCC[C@H]1C(=O)N[C@@H](CO)C(=O)O)[C@@H](C)O` [SEQ ID NO 6, Tza-SQGTFTSDYSKQLESRRAQEFIEWLLATGPESGAPPPS-OH], in data set [4] (10 μg/kg s.c.), the “blood glucose excursion compared to 30 μg/kg GCG” value is given as “more powerful blood glucose excursion”. Further, the “time of blood glucose peak after injection” value (“time of blood glucose peak” for short) in data set [4] (10 μg/kg s.c.) was found to be 30 min; in data set [4] (30 μg/kg s.c.), 60 min. In data set [4], the “effect on blood glucose” value is listed as “dose-dependent increase of blood glucose”. The compound further came in with an EC50 in data set [1] (Table 4) of 9.3 nM. Moreover, the “effect on blood glucose relative to human glucagon” value in data set [5] (dog) is “mimicked the effect of human glucagon on blood glucose”. Also, the “induction of a blood glucose response, SEQ. ID 5 vs. SEQ. ID 6” value in data set [5] (s.c.) is “similarly active”. Also, the solubility at 2 h in data set [3] was greater than 10000 µg/mL.

`CCCC[C@H](NC(=O)[C@H](CCC(N)=O)NC(=O)[C@H](CCCCN)NC(=O)[C@H](CO)NC(=O)[C@H](CC(C)C)NC(=O)[C@H](CC(=O)O)NC(=O)[C@H](CO)NC(=O)[C@@H](NC(=O)[C@H](Cc1ccccc1)NC(=O)[C@@H](NC(=O)CNC(=O)[C@H](CCC(N)=O)NC(=O)[C@H](CO)NC(=O)[C@@H](N)Cc1cscn1)[C@@H](C)O)[C@@H](C)O)C(=O)N[C@@H](CCC(=O)O)C(=O)N[C@@H](CO)C(=O)N[C@@H](CCCNC(=N)N)C(=O)N[C@@H](CCCNC(=N)N)C(=O)N[C@@H](C)C(=O)N[C@@H](CCC(N)=O)C(=O)N[C@@H](CC(=O)O)C(=O)N[C@@H](Cc1ccccc1)C(=O)N[C@H](C(=O)N[C@@H](CCC(=O)O)C(=O)N[C@@H](Cc1c[nH]c2ccccc12)C(=O)N[C@@H](CC(C)C)C(=O)N[C@@H](CC(C)C)C(=O)N[C@@H](C)C(=O)N[C@H](C(=O)NCC(=O)N1CCC[C@H]1C(=O)N[C@@H](CCC(=O)O)C(=O)N[C@@H](CO)C(=O)NCC(=O)N[C@@H](C)C(=O)N1CCC[C@H]1C(=O)N1CCC[C@H]1C(=O)N1CCC[C@H]1C(=O)N[C@@H](CO)C(=O)O)[C@@H](C)O)[C@@H](C)CC` [SEQ ID NO 3, Tza-S-Q-G-T-F-T-S-D-L-S-K-Q-Nle-ESRRAQDFIEWLLATGPESGAPPPS-OH] (H-[Ala(4-thiazolyl)]SQGTFTSDLSKQ[Nle]ESRRAQDFIEWLLATGPESGAPPPS-OH): the concentration giving a half-maximal response (EC50) came out at 44.3 nM in data set [1] (Table 4) and 1.8 pM in data set [2]. The compound also displayed a solubility at 2 h in data set [3] greater than 10000 µg/mL.

With `CC[C@H](C)[C@H](NC(=O)[C@H](Cc1ccccc1)NC(=O)[C@H](CCC(=O)O)NC(=O)[C@H](CCC(N)=O)NC(=O)[C@H](C)NC(=O)[C@H](CCCNC(=N)N)NC(=O)[C@H](CCCNC(=N)N)NC(=O)[C@H](CO)NC(=O)[C@H](CCC(=O)O)NC(=O)[C@H](CC(C)C)NC(=O)[C@H](CCC(N)=O)NC(=O)[C@H](CCCCN)NC(=O)[C@H](CO)NC(=O)[C@H](Cc1ccc(O)cc1)NC(=O)[C@H](CC(=O)O)NC(=O)[C@H](CO)NC(=O)[C@@H](NC(=O)[C@H](Cc1ccccc1)NC(=O)[C@@H](NC(=O)CNC(=O)[C@H](CCC(N)=O)NC(=O)[C@H](CO)NC(=O)[C@@H](N)Cc1cscn1)[C@@H](C)O)[C@@H](C)O)C(=O)N[C@@H](CCC(=O)O)C(=O)N[C@@H](Cc1c[nH]c2ccccc12)C(=O)N[C@@H](CC(C)C)C(=O)N[C@@H](CC(C)C)C(=O)N[C@@H](C)C(=O)NCC(=O)NCC(=O)N1CCC[C@H]1C(=O)N[C@@H](CCC(=O)O)C(=O)N[C@@H](CO)C(=O)NCC(=O)N[C@@H](C)C(=O)N1CCC[C@H]1C(=O)N1CCC[C@H]1C(=O)N1CCC[C@H]1C(=O)N[C@@H](CO)C(=O)O` [SEQ ID NO 5, Tza-SQGTFTSDYSKQLESRRAQEFIEWLLAGGPESGAPPPS-OH], the “time of blood glucose peak” value in data set [4] (10 μg/kg s.c.) is reported as 30 min. In data set [4] (20 μg/kg s.c.), the “blood glucose excursion compared to 30 μg/kg GCG” value is given as “nearly comparable shape of blood glucose excursion” and the “time of blood glucose peak” value came to 45 min. The “time of blood glucose peak” value in data set [4] (30 μg/kg s.c.) came out at 90 min. Moreover, the “effect on blood glucose” value in data set [4] is “dose-dependent increase of blood glucose”. Besides, the half-maximal effective concentration (EC50) in data set [1] (Table 4) worked out at 2.19 nM. Besides, the “peak increase of blood glucose” value in data set [5] (10 μg/kg s.c., dog) was in the range of 3.5 to 4 mmol/L. In addition, in data set [5] (dog), the “subcutaneous versus intramuscular injection” value is “no difference in activity and blood glucose time-action profile”; the “effect on blood glucose relative to human glucagon” value is recorded as “mimicked the effect of human glucagon on blood glucose”. The “glucose excursion at higher doses” value in data set [5] (doses beyond 10 μg/kg s.c., dog) is on record as “did no longer result in higher glucose excursion”. Also, in data set [5] (s.c., dog, versus human glucagon), the “duration of the glucose response” value is reported as “slightly longer”. In addition, the “induction of a blood glucose response, SEQ. ID 5 vs. SEQ. ID 6” value in data set [5] (s.c.) is “similarly active”. In addition, the “activity by route of administration” value in data set [5] (subcutaneous, intramuscular and intravenous injection, dog) is on record as “active through all parenteral routes”. The solubility at 2 h in data set [3] is greater than 10000 µg/mL.
